EC50, IC50 and Ki data for 9 compounds are collected here from patent publication US8614206B2 (Genentech, Inc., priority 2011, dated 2013).

Where two headings read alike, the source gives them in different places.

In test [1] the test system is MM1.S (multiple myeloma) cells. Description: In vitro cell proliferation, MM1.S multiple myeloma cells (CellTiter-Glo, ATP). The class given is cell-based. Conditions: read-out: Prolif MM1S ATP (EC50). Summed up:
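BaF3 parental cells (medium with 2 ng/mL mIL-3) seeded at 2 k/well and MM1.S at 10 k/well, then exposed to test compound at 37° C, 5% CO2: BaF3 overnight, MM1.S for 72 hours. Viability read by CellTiter-Glo; IC50/EC50 values calculated.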

For test [2], the system named is BaF3 PIM1 cells. The settings on record: read-out: Prolif BaF3_PIM1 (IC50), incubated overnight.
Protocol: (§1) BaF3 parental line was obtained from the DSMZ repository. BaF3 lines transfected with PIM 1 or PIM2 were generated. Mouse IL-3 was purchased from R&D Systems. G418 was purchased from Clontech. Media for BaF3 parental line contained RPMI, 10% FBS, 2 mM L-Glutamine, 2 ng/mL mIL-3. Media for BaF3 PIM1 & 2 lines contained RPMI, 10% FBS, 2 mM L-Glutamine, 250 μg/mL.
(§2) BaF3, a murine interleukin-3 dependent pro-B cell line, parental cells, BaF3 PIM1 cells, BaF3 PIM2 cells, and MM1.S (multiple myeloma) cells were seeded at 2 k/well, 5 k/well, 5 k/well, and 10 k/well respectively, in a 384-well plate, at 45 μL/well. Test compound was added at 5 μL/well. BaF3 cells (parental and transfected) were incubated overnight, while MM1.S cells were incubated for 72 hours at 37° C., 5% CO2. CELL TITER GLO® Reagent (Promega) was added at 50 μL/well, the plates were incubated for 30 minutes, and their luminescence read on an HT Analyst. IC50/EC50 values for the test compound were calculated.
The next test relates to BaF3 parental cells. Put plainly: In vitro cell proliferation, BaF3 parental line + IL3 (CellTiter-Glo). It counts as cell-based, murine. A general note: ATP-based viability assays read luminescence as a measure of living cells.
Another test addresses PIM1 (Homo sapiens (Human), UniProt P11309). Description: Pim kinase inhibition, PIM1 LC3K (Example 901). It counts as biochemical.
The test system of test [3] is BaF3 PIM1 cells. Description: cells. Conditions: Mus musculus.
Protocol: as §1, §2
Where [4] appears, read: Mus musculus, BaF3, BaF3 parental cells with IL-3, incubated overnight, read-out: Prolif BaF3 + IL3 (IC50).
Where [5] appears, read: BaF3, read-out: Prolif BaF3_PIM1 (IC50), BaF3 PIM1 cells, incubated overnight.
Where [6] appears, read: Mus musculus, BaF3, BaF3 parental cells with IL-3, incubated overnight, read-out: Prolif BaF3 IL3 (IC50).
The mark [7] stands for this setting: BaF3, read-out: Prolif BaF3 PIM1 (IC50), BaF3 PIM1 cells, incubated overnight.

PIM1, sequence (P11309 whole entry): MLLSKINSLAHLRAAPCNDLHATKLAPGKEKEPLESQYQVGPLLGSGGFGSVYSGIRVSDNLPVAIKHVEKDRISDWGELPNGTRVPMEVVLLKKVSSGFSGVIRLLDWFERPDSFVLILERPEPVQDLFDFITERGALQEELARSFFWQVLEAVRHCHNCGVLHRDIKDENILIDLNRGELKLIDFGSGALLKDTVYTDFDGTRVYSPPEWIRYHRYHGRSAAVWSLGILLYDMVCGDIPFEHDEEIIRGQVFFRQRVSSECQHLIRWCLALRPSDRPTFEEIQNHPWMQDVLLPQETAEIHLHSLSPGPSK

Turning to `CCn1ncc(NC(=O)c2nc(-c3c(F)cccc3F)sc2N)c1N1CCC(N)C(OC)CC1` (single isomer, unassigned) [Example 407, 5-amino-N-[5-(4-amino-5-methoxy-azepan-1-yl)-1-ethyl-pyrazol-4-yl]-2-(2,6-difluorophenyl)thiazole-4-carboxamide], the EC50 in test [1] (72 hours) came out at 3500 nM. Moreover, the half-maximal inhibitory concentration (IC50) with BaF3 PIM1 cells [2] is 795 nM; in the test on BaF3 parental cells (BaF3 parental cells with IL-3, incubated overnight, read-out: Prolif BaF3 + IL3 (IC50)) it was 9800 nM. The same compound displayed a Ki at PIM1 of 0.204 nM.
With `CCn1ncc(NC(=O)c2nc(-c3c(F)cccc3F)sc2N)c1N1CCC(N)C(OC)CC1` (single isomer, unassigned) [Example 406, 5-amino-N-[5-(4-amino-5-methoxy-azepan-1-yl)-1-ethyl-pyrazol-4-yl]-2-(2,6-difluorophenyl)thiazole-4-carboxamide], the EC50 in test [1] (72 hours) was found to be 404 nM. Moreover, the figures for the IC50 with BaF3 PIM1 cells [2] and with BaF3 parental cells (setting [4]) were 284 nM and 12000 nM, respectively. Besides, the Ki at PIM1 is 0.133 nM.
Turning to `Cc1cc(-c2nc(C(=O)Nc3cnn(C)c3N3CC[C@@H](N)CC(F)(F)C3)c(N)s2)ccn1` [Example 464, 5-amino-N-[5-[(5R)-5-amino-3,3-difluoro-azepan-1-yl]-1-methyl-pyrazol-4-yl]-2-(2-methyl-4-pyridyl)thiazole-4-carboxamide], the EC50 in test [1] (Homo sapiens, MM1.S, 72 h) was found to be 467 nM. Also, the IC50 stood at 15900 nM in the test on BaF3 parental cells (setting [4]) and 11.9 nM in the test with BaF3 PIM1 cells [3] (setting [5]). Moreover, on PIM1, affinity was put at a Ki of 0.06 nM.
In the case of `Cn1ncc(NC(=O)c2nc(-c3ccccn3)sc2N)c1N1CCNCC(F)(F)C1` [Example 223, 5-amino-N-(5-(6,6-difluoro-1,4-diazepan-1-yl)-1-methyl-1H-pyrazol-4-yl)-2-(pyridin-2-yl)thiazole-4-carboxamide], the EC50 in test [1] (Homo sapiens, MM1.S, 72 h) came out at 20200 nM. The IC50 in the test on BaF3 parental cells (setting [6]) was determined as 12500 nM; in the test on BaF3 PIM1 cells [3] (setting [7]) it was 547 nM. Moreover, the Ki on PIM1 is 0.206 nM.
Consider `Cn1ncc(NC(=O)c2nc(-c3cc(F)ccc3F)sc2N)c1N1CCNCC(F)(F)C1` [Example 106, 5-Amino-N-(5-(6,6-difluoro-1,4-diazepan-1-yl)-1-methyl-1H-pyrazol-4-yl)-2-(2,5-difluorophenyl)thiazole-4-carboxamide], for which, in test [1] (Homo sapiens, MM1.S, 72 h), the EC50 is 1900 nM. The IC50 in the test on BaF3 parental cells (setting [6]) was determined as 15600 nM; in the test with BaF3 PIM1 cells [3] (setting [7]) it was 566 nM. The compound also yielded a Ki at PIM1 of 0.03 nM.
`Nc1sc(-c2c(F)cccc2F)nc1C(=O)Nc1cnn(C2CC2)c1N1CC[C@@H](N)CC(F)(F)C1` [Example 345, 5-amino-N-[5-[(5R)-5-amino-3,3-difluoro-azepan-1-yl]-1-cyclopropyl-pyrazol-4-yl]-2-(2,6-difluorophenyl)thiazole-4-carboxamide]: the concentration for a half-maximal effect (EC50) in test [1] (Homo sapiens, MM1.S, 72 h) was 136 nM. Further, the IC50 turned out to be 8400 nM with BaF3 parental cells (setting [4]) and 81.3 nM in the test on BaF3 PIM1 cells [3] (setting [5]). This compound came in with a Ki at PIM1 of 0.007 nM.
For `Cn1ncc(NC(=O)c2nc(-c3c(F)cncc3F)sc2N)c1N1CCC(N)CC(F)(F)C1` (racemic) [Example 438, 5-amino-N-[5-(5-amino-3,3-difluoro-azepan-1-yl)-1-methyl-pyrazol-4-yl]-2-(3,5-difluoro-4-pyridyl)thiazole-4-carboxamide], in test [1] (Homo sapiens, MM1.S, 72 h), the 50% effective concentration (EC50) worked out at 80.6 nM. Also, the figures for the IC50 in the test on BaF3 parental cells (setting [4]) and in the test with BaF3 PIM1 cells [3] (setting [5]) were 20300 nM and 3.03 nM, respectively. The compound also came in with an inhibitory constant (Ki) on PIM1 of 0.008 nM.
For `COc1ncccc1-c1nc(C(=O)Nc2cnn(C)c2N2CCC[C@H](N)CC2)c(N)s1` [Example 418, 5-amino-N-[5-[(4S)-4-aminoazepan-1-yl]-1-methyl-pyrazol-4-yl]-2-(2-methoxy-3-pyridyl)thiazole-4-carboxamide] the same measures were 7000 nM, over 25000 nM, 1400 nM and 1.08 nM.
Turning to `CN[C@H]1CCCN(c2c(NC(=O)c3nc(-c4cc(C)ccc4F)sc3N)cnn2CC(F)F)CC1` [Example 119, (S)-5-Amino-N-(1-(2,2-difluoroethyl)-5-(4-(methylamino)azepan-1-yl)-1H-pyrazol-4-yl)-2-(2-fluoro-5-methylphenyl)thiazole-4-carboxamide], the EC50 in test [1] (Homo sapiens, MM1.S, 72 h) worked out at 3000 nM. Also, the IC50 in the test on BaF3 parental cells (setting [6]) came to 5600 nM; in the test with BaF3 PIM1 cells [3] (setting [7]), 212 nM. The compound also came in with a Ki at PIM1 of 0.044 nM.

The EC50 is the concentration at which the effect is half-maximal. Broadly, the IC50 is the concentration needed to halve the response being measured. As usually defined, the Ki is the dissociation constant of the complex between target and ligand, obtained from inhibition or displacement. High values mean lower affinity, low ones higher affinity.
